The results in this text go back to article PMC8146912, “Phenolic Compounds of Reynoutria sp. as Modulators of Oral Cavity Lactoperoxidase System” (Antioxidants, 2021).

In general, EC50 refers to the concentration giving half of the maximal effect. Higher therefore signals lower potency in that assay. A word on the IC50: it is the concentration that gives 50% inhibition. Lower therefore signals greater potency.

Each structure is given as a SMILES string.

Assay type in all cases: biochemical
Test [1] deals with T1, Lactoperoxidase (LPO) (Bos taurus, UniProt P80025).
T1 construct: native enzyme from bovine milk, commercial lyophilisate (Sigma-Aldrich), heme-containing, mature secreted form
Put plainly: Ellman's reagent assay of OSCN- formation, […] nm. On the technique in general: In Ellman's method for cholinesterases, released thiocholine reacts with DTNB.

Test [2] has as its target T1, Lactoperoxidase (LPO). In words: Ellman's reagent assay of OSCN- formation, […] nm. The source holds these as a separate data set.
The target in test [3] is T1, Lactoperoxidase (LPO). In words: stopped-flow spectrophotometry, reduction of LPO Compound II to native LPO. The following applies: 1 µM LPO, 0.75 µM H2O2, 20 mM phosphate pH 6, 15 °C; one-electron donor in peroxidation cycle.

`Oc1cc(O)c2c(c1)O[C@H](c1ccc(O)c(O)c1)[C@H](O)C2` [a, (-)-Epicatechin] returned a 50% effective concentration (EC50) on Lactoperoxidase (LPO) [1] of 1.31 ± 0.239 µM. Half-maximal inhibition on Lactoperoxidase (LPO) [2] (IC50) required 74.1 ± 3.62 µM.
The compound `Oc1ccc(/C=C/c2cc(O)cc(O)c2)cc1` [b, Resveratrol] displayed an EC50 at Lactoperoxidase (LPO) [1] of 0.009 ± 0.002 µM. Further, half-maximal inhibition against Lactoperoxidase (LPO) [2] (IC50) required 0.423 ± 0.018 µM.
With `Cc1cc(O)c2c(c1)C(=O)c1cc(O)cc(O)c1C2=O` [c, Emodin], the “k (Compound II -> Native LPO)” value at Lactoperoxidase (LPO) [3] is “this compound may be a substrate for LPO Compound I and Compound II”.
